How the values were obtained:
Format in all cases: in vivo
ZEAMX [1] = test: Pre-emergence herbicidal activity, glasshouse pot test; details: rate 1000 g/Ha, evaluated after 13 days, scale 0-5
Protocol: (§1) Seeds of a variety of test species were sown in standard soil in pots. After cultivation for one day (pre-emergence) under controlled conditions in a glasshouse (at 24/16° C., day/night; 14 hours light; 65% humidity), the plants were sprayed with an aqueous spray solution derived from the formulation of the technical active ingredient in acetone/water (50:50) solution containing 0.5% Tween 20 (polyoxyethelyene sorbitan monolaurate, CAS RN 9005-64-5). The test plants were then grown in a glasshouse under controlled conditions (at 24/16° C., day/night; 14 hours light; 65% humidity) and watered twice daily. After 13 days, the test was evaluated (5=total damage to plant; 0=no damage to plant).

ECHCG [2] = test: as above; details: rate 1000 g/Ha, evaluated after 13 days, scale 0-5
Protocol: as §1

ABUTH [3] = test: as above; details: rate 1000 g/Ha, evaluated after 13 days, scale 0-5
Protocol: as §1

AMARE [4] = test: as above; details: rate 1000 g/Ha, evaluated after 13 days, scale 0-5
Protocol: as §1

SETFA [5] = test: as above; details: rate 1000 g/Ha, evaluated after 13 days, scale 0-5
Protocol: as §1

ZEAMX [6] = test: Post-emergence herbicidal activity, glasshouse pot test; details: Zea mays; application post-emergence; rate 1000 g/Ha; evaluated after 13 days
Protocol: (§2) Seeds of a variety of test species were sown in standard soil in pots. After 8 days cultivation (post-emergence) under controlled conditions in a glasshouse (at 24/16° C., day/night; 14 hours light; 65% humidity), the plants were sprayed with an aqueous spray solution derived from the formulation of the technical active ingredient in acetone/water (50:50) solution containing 0.5% Tween 20 (polyoxyethelyene sorbitan monolaurate, CAS RN 9005-64-5). The test plants were then grown in a glasshouse under controlled conditions (at 24/16° C., day/night; 14 hours light; 65% humidity) and watered twice daily. After 13 days, the test was evaluated (5=total damage to plant; 0=no damage to plant).

ECHCG [7] = test: as above; details: Echinochloa crus-galli; application post-emergence; rate 1000 g/Ha; evaluated after 13 days
Protocol: as §2

ABUTH [8] = test: as above; details: Abutilon theophrasti; application post-emergence; rate 1000 g/Ha; evaluated after 13 days
Protocol: as §2

AMARE [9] = test: as above; details: Amaranthus retroflexus; application post-emergence; rate 1000 g/Ha; evaluated after 13 days
Protocol: as §2

SETFA [10] = test: as above; details: Setaria faberi; application post-emergence; rate 1000 g/Ha; evaluated after 13 days
Protocol: as §2

Structure (SMILES) | ZEAMX damage score, application pre-emergence (ZEAMX [1]) | ECHCG damage score, application pre-emergence (ECHCG [2]) | ABUTH damage score, application pre-emergence (ABUTH [3]) | AMARE damage score, application pre-emergence (AMARE [4]) | SETFA damage score, application pre-emergence (SETFA [5]) | Post-emergence herbicidal activity ZEAMX (damage score 0-5) (ZEAMX [6]) | Post-emergence herbicidal activity ECHCG (damage score 0-5) (ECHCG [7]) | Post-emergence herbicidal activity ABUTH (damage score 0-5) (ABUTH [8]) | Post-emergence herbicidal activity AMARE (damage score 0-5) (AMARE [9]) | Post-emergence herbicidal activity SETFA (damage score 0-5) (SETFA [10])
CC1C(O)N(c2cc(C(F)F)c(Cl)cn2)C(=O)N1C (stereo not shown) [Compound A86] | 3 | 5 | 5 | 5 | 5 | 2 | 5 | 5 | 5 | 5
CCOC1C(O)N(c2cc(Cl)c(C(=O)NC(C)(C)C)cn2)C(=O)N1C (stereo not shown) [Compound A69] | 2 | 5 | 5 | 5 | 5 | 3 | 5 | 5 | 4 | 4
C=Cc1cnc(N2C(=O)N(C)C(C)C2O)cc1C(F)(F)F (stereo not shown) [Compound A62] | 2 | 4 | 4 | 5 | 3 | 2 | 5 | 5 | 5 | 5
COC[C@@H]1C(O)N(c2cc(C(F)(F)F)ccn2)C(=O)N1C (stereo partly shown) [Compound A77] | 3 | 5 | 5 | 5 | 5 | 5 | 5 | 5 | 5 | 5
CN1C(=O)N(c2ccc(C(F)(F)F)cn2)C(O)C1O (stereo not shown) [Compound A81] | 0 | 0 | 2 | 3 | 2 | 0 | 2 | 4 | 4 | 2
CC1C(O)N(c2ccc(C(=O)NC(C)(C)C)cn2)C(=O)N1C (stereo not shown) [Compound A67] | 3 | 5 | 5 | 5 | 5 | 4 | 5 | 5 | 5 | 5
O=C1N2CCOC2C(O)N1c1cc(C(F)(F)F)ccn1 (stereo not shown) [Compound A75] | 2 | 4 | 5 | 5 | 4 | 2 | 5 | 5 | 5 | 5

— patent US11608323B2 (SYNGENTA LIMITED, priority 2013, dated 2023)
